Data on five compounds can be found in US20260014246A1, “TREATMENT METHODS FOR VIRAL INFECTIONS” (priority 2022, published 2026).

Where two headings read alike, the source gives them in different places. Peptide text beside a SMILES is read from it.

What is called IC50 is the point on the concentration scale where inhibition reaches its midpoint.

In series [1] the test system is SARS-COV-2 Alpha. The conditions noted are these: for IC50: Alpha.
The test system of a further series is Vero-E6 cells. Briefly: Cytotoxic effects in Vero-E6 cells (Reliablue viability). The format is cell-based. As to the method:
Data for peptide 4F (Ac-[…]-NH2; SEQ ID NO: 34) is also provided. In this example, Vero-E6 cells (96 well plate) were grown in EMEM containing 10% FBS and Pen/Strep at 37° C. and 5% CO2. Once cells reached 80% confluence, medium was replaced with fresh complete medium containing the indicated concentration of peptide (FIGS. 6A-B) or peptide complexed with DMPC (1:5 ratio weight:weight). Incubation period proceeded for 24 or 48 hrs. Cells were washed and replaced with complete medium containing fluorescent Reliablue reagent. Viability was then measured. Data are presented as percent viability compared to control (no additions). Results are presented as the mean±SEM.

The subject of series [2] is SARS-COV-2 Alpha. The series can be described thus: Remdizivir treatment of mice challenged with SARS-COV-2 Alpha. The format is in vivo, female hACE2 Knock-in mice. The conditions noted are these: 25 mg/kg bodyweight, single dose; 54000 pfu intranasal; untreated mice 20%.
The test system of series [3] is SARS-COV-2 Delta. Briefly: Rechallenge with active SARS-COV-2 Delta after EVE18 inactivated SARS-COV-2 Alpha (heterologous). Format: in vivo, female hACE2 Knock-in mice. Particulars: rechallenge with 54000 pfu SARS-COV-2 Delta nine and seven weeks after initial challenge; two groups; 14 days.
Series [4] relates to SARS-COV-2 Alpha. Briefly: Therapeutic dosing of EVE18 in mice challenged with SARS-COV-2 Alpha. Format: in vivo, female hACE2 Knock-in mice.
Series [5] deals with SARS-COV-2 Delta. The series can be described thus: SARS-COV-2 Delta pre-incubated with EVE18 and given intranasally to mice. Format: in vivo, female hACE2 Knock-in mice. The conditions noted are these: 54000 pfu SARS-COV-2 Delta pre-incubated ~45 min with 10 μM peptide; intranasal; 14 days.
Series [6] has as its system H1N1. The series can be described thus: Second challenge with active H1N1 after intranasal peptide-inactivated H1N1. The format is in vivo, female C57BL/6J mice. The conditions noted are these: 14 days.
In series [7] the test system is SARS-COV-2 Alpha. The series can be described thus: SARS-COV-2 Alpha pre-incubated with peptide and given intranasally to mice. The format is in vivo, female hACE2 Knock-in mice. Particulars: 54000 pfu pre-incubated ~45 min with 10 μM peptide; intranasal; 14 days.
In the next series the test system is H1N1A-California. Format: in vivo, female C57BL/6J mice.
The test system of series [8] is SARS-COV-2 Alpha. The series can be described thus: Rechallenge with active SARS-COV-2 Alpha after EVE18 inactivated SARS-COV-2 Alpha (homologous). The format is in vivo, female hACE2 Knock-in mice. Particulars: rechallenge with 54000 pfu SARS-COV-2 Alpha eight weeks after initial challenge; 14 days.
The test system of series [9] is H1N1. Briefly: Sub-cutaneous EVE14 in mice challenged intranasally with H1N1. Format: in vivo, female C57BL/6J mice.
Series [10] has as its system H1N1. The series can be described thus: Second H1N1 challenge of mice that received H1N1 and sub-cutaneous EVE14. The format is in vivo, female C57BL/6J mice. The conditions noted are these: second challenge 1200 pfu H1N1 three weeks after the first.
[11] abbreviates: [peptide-lipid] complex (DMPC 1:5 weight:weight), 48 hours incubation.
The mark [12] stands for this setting: 300 micrograms sub-cutaneous 2 hr prior to virus and second dose 24 hr after virus.

In the case of `CC(=O)N[C@@H](CC(C)C)C(=O)N[C@@H](CCCNC(=N)N)C(=O)N[C@@H](CCCCN)C(=O)N[C@@H](CC(C)C)C(=O)N[C@@H](CCCNC(=N)N)C(=O)N[C@@H](CCCCN)C(=O)N[C@@H](CCCNC(=N)N)C(=O)N[C@@H](CC(C)C)C(=O)N[C@@H](CC(C)C)C(=O)N[C@@H](CCCNC(=N)N)C(=O)N[C@@H](CC(=O)O)C(=O)N[C@@H](Cc1c[nH]c2ccccc12)C(=O)N[C@@H](CC(C)C)C(=O)N[C@@H](CCCCN)C(=O)N[C@@H](C)C(=O)N[C@@H](Cc1ccccc1)C(=O)N[C@@H](Cc1ccc(O)cc1)C(=O)N[C@@H](CC(=O)O)C(=O)N[C@@H](CCCCN)C(=O)N[C@H](C(=O)N[C@@H](C)C(=O)N[C@@H](CCC(=O)O)C(=O)N[C@@H](CCCCN)C(=O)N[C@@H](CC(C)C)C(=O)N[C@@H](CCCCN)C(=O)N[C@@H](CCC(=O)O)C(=O)N[C@@H](C)C(=O)N[C@@H](Cc1ccccc1)C(N)=O)C(C)C` [EVE4] (Ac-LRKLRKRLLRDWLKAFYDKVAEKLKEAF-NH2), the “antiviral activity in comparison to remdesivir” value in the series with SARS-COV-2 Alpha [1] is recorded as “greater antiviral activity than remdesivir”. In addition, the “SARS-COV-2 positive area reduced to” value in the series on SARS-COV-2 Alpha [1] (1 μM) was roughly 0. The compound further yielded a half-inhibitory concentration (IC50) in the series on SARS-COV-2 Alpha [1] of 3 to 4.5 µM. Further, the cytotoxic effects entry is “lack of cytotoxic effects” with Vero-E6 cells (setting [11]); “lack of cytotoxic effects” with Vero-E6 cells (peptide, 24 hours incubation); “lack of cytotoxic effects” in the series with Vero-E6 cells (peptide, 48 hours incubation).

In the case of `CC[C@H](C)[C@H](NC(=O)[C@H](CCCNC(=N)N)NC(=O)[C@H](C)NC(=O)[C@H](Cc1c[nH]c2ccccc12)NC(=O)[C@H](CO)NC(=O)CNC(=O)[C@H](CC(C)C)NC(=O)[C@H](Cc1ccccc1)NC(=O)[C@H](CCCNC(=N)N)NC(=O)[C@H](CCCNC(=N)N)NC(=O)[C@H](Cc1ccccc1)NC(=O)CNC(C)=O)C(=O)N[C@@H](Cc1ccc(O)cc1)C(=O)N[C@@H](CCCNC(=N)N)C(=O)N[C@@H](C)C(=O)N[C@@H](Cc1ccccc1)C(=O)N[C@H](C(=O)NCC(N)=O)C(C)C` [EVEmR18L, Ac-GFRRFLGSWARIYRAFVG-NH2] (Ac-GFRRFLGSWARIYRAFVG-NH2), the “antiviral activity in comparison to remdesivir” value with SARS-COV-2 Alpha [1] is listed as “greater antiviral activity than remdesivir”. In the series on SARS-COV-2 Alpha [1] (1 μM), the “reduction of the SARS-COV-2 positive area” value is “approximately 80%”. The “SARS-COV-2 positive area reduced to” value with SARS-COV-2 Alpha [1] (10 μM) is given as roughly 0. The compound further had an IC50 in the series with SARS-COV-2 Alpha [1] of 3 to 4.5 µM. Also, the cytotoxic effects entry with Vero-E6 cells (setting [11]) is listed as “lack of cytotoxic effects”; in the series with Vero-E6 cells (peptide, 24 hours incubation), “lack of cytotoxic effects”; in the series with Vero-E6 cells (peptide, 48 hours incubation), “lack of cytotoxic effects”.

For the compound `CCC(CC)COC(=O)[C@H](C)N[P@](=O)(OC[C@H]1O[C@@](C#N)(c2ccc3c(N)ncnn23)[C@H](O)[C@@H]1O)Oc1ccccc1` [remdesivir, reference compound], the “reduction of the SARS-COV-2 positive area” value with SARS-COV-2 Alpha [1] (1 μM) is “approximately 65%”. The compound also had a mouse survival in the series with SARS-COV-2 Alpha [2] of 40%.

Take Ac-GFRRFYGSIWRFIRAFVG-NH2 [EVE18]: the survival in the series with SARS-COV-2 Delta [3] was 85%; with SARS-COV-2 Alpha [4] (300 micrograms 24 hr, 48 hr and 72 hrs after 54000 pfu virus, 10 days, virus alone 20%), 50%; with SARS-COV-2 Alpha [4] (setting [12]) it was 70%; with SARS-COV-2 Delta [5], “All mice in this group survived”; in the series on SARS-COV-2 Alpha [7], “All mice in this group survived”. In addition, the “mortality (timing)” value with SARS-COV-2 Alpha [4] (300 micrograms 24 hr, 48 hr and 72 hrs after 54000 pfu virus) was “delayed mortality”; in the series on SARS-COV-2 Alpha [4] (setting [12]), “delayed the mortality”. The mortality after rechallenge entry with H1N1 [6] (mice first given peptide-treated H1N1 (~45 min, ~10 μM), rechallenged several weeks later with 1200 pfu active H1N1A-California) is “No mouse in this group died during this period”. Further, the bodyweight loss entry with H1N1A-California (14 days) was “No mouse in this group died or lost significant bodyweight”. Moreover, in the series with H1N1A-California (14 days), the “mortality (frank mortality or weight loss of 25%)” value was “No mouse in this group died”. This compound also displayed a rechallenged mice survived in the series on SARS-COV-2 Alpha [8] of roughly 75%.

Take Ac-RRFYGSIWRFIRAF-NH2 [EVE14]: the weight loss result with H1N1 [9] (300 micrograms sub-cutaneously plus 150 microgram boosters (24, 48 hr or 24-96 hr), 1200 pfu H1N1 intranasal, compared to untreated mice) is on record as “significant delay in their weight loss which also was blunted”. Moreover, the weight loss entry in the series on H1N1 [9] (Example 13, FIG. 14: 1200 pfu H1N1 intranasal, peptide sub-cutaneously) is reported as “much reduced weight loss”. Further, the “survival (or bodyweight loss of less than 25%)” value in the series with H1N1 [9] (both sub-cutaneous treatment groups compared to H1N1 alone) was “significantly increased survival”. Moreover, the “bodyweight loss after second challenge” value with H1N1 [6] (mice first given H1N1A pre-incubated with peptide for 60 minutes, second challenge 1200 pfu active H1N1 several weeks later) was “no mouse in the group which underwent a second H1N1 challenge lost significant bodyweight”. In the series with SARS-COV-2 Alpha [7], the mice survived result was “Ninety”. In addition, in the series on H1N1A-California (14 days), the bodyweight loss result was “incapable of inducing weight loss or frank death”, the “death (frank death or 25% decrease in bodyweight)” value was “incapable of inducing death”, the “mortality (frank mortality or weight loss of 25%)” value was “No mice in this group died” and the weight loss result is “incapable of inducing weight loss”. Also, in the series on H1N1A-California (mouse, in vivo), the survival result is reported as “survived this initial challenge” and the weight loss entry is “lost little weight”. The “mortality or weight loss after second challenge” value in the series with H1N1 [10] is “does not elicit mortality or weight loss”.
